Assay results reported in publication PMC8571282 (Nature Communications, 2021).
“And” between values parts separate entries of the source, which are not always exact repeats. Identical values can stand only once.

Columns and labels:
[1] = test system: SARS-CoV-2 WA1/2020 (lineage A); assay: microbe, parasite or virus in culture; assay type: cell-based
[2] = test system: SARS-CoV-2 CA/2020 (α, lineage B.1.1.7); assay: microbe, parasite or virus in culture; assay type: cell-based; settings: Severe acute respiratory syndrome coronavirus 2, Vero C1008; CA/2020, VeroE6, mean n=3
[3] = test system: SARS-CoV-2 SA/2020 (β, lineage B.1.351); assay: microbe, parasite or virus in culture; assay type: cell-based; settings: Severe acute respiratory syndrome coronavirus 2, Vero C1008; SA/2020, VeroE6, mean n=3
[4] = test system: SARS-CoV-2 BZ/2021 (γ, lineage P.1); assay: microbe, parasite or virus in culture; assay type: cell-based; settings: Severe acute respiratory syndrome coronavirus 2, Vero C1008; BZ/2021, VeroE6, mean n=3
[5] = test system: SARS-CoV-2-Nluc (WA1/2020-nano luciferase); assay: microbe, parasite or virus in culture; assay type: cell-based
[6] = test system: SARS-CoV-2 gamma isolate (BZ/2021, lineage P.1); assay: microbe, parasite or virus in culture; assay type: cell-based; settings: Severe acute respiratory syndrome coronavirus 2
[7] = test system: well-differentiated primary human airway epithelium cultures; assay type: cell-based
[8] = test system: SARS-CoV-2 (WA1/2020 and VOC α, β, γ); assay: microbe, parasite or virus in culture; assay type: cell-based; settings: Severe acute respiratory syndrome coronavirus 2, Vero C1008; read-out: Half-maximal effective concentrations (EC50), range
[9] = set-up: method as in Mackman et al 2021 (JMC 2021, 64(8), 5001-5017); settings: rats, ref Mackman et al 2021 (JMC 2021, 64(8), 5001-5017); cited from earlier work
[10] = several species; cited from earlier work
in vitro [11] = settings: human
in vitro [12] = settings: human, % cell viability, HEp-2, 3.704 µM, 72 h
in vitro [13] = settings: human, % cell viability, HCT-8, 0.046 µM, 72 h
in vitro [14] = settings: human; remark: listed apart in the source
[15] = Cytotoxicity assay (PrestoBlue), HEp-2; settings: human, HEp-2 cells
[16] = Cytotoxicity assay (PrestoBlue), HCT-8; settings: human, HCT-8 cells
[17] = Cytotoxicity assay (PrestoBlue), VeroE6; settings: African green monkey, VeroE6 cells
VeroE6 cells = assay: Cytotoxicity assay (PrestoBlue), VeroE6; settings: 72 h
[18] = Cytotoxicity assay (PrestoBlue), BHK-21; settings: hamster, BHK-21 cells
[19] = Cytotoxicity assay (PrestoBlue), “F3” HAE; settings: human
“F3” primary HAE cells = assay: Cytotoxicity assay (PrestoBlue), “F3” HAE; settings: F3 HAE, 72 h
[20] = Cytotoxicity assay (PrestoBlue), “M2” HAE; settings: human
[21] = Cytotoxicity assay (PrestoBlue), “M6” HAE; settings: human
“M6” primary HAE cells = assay: Cytotoxicity assay (PrestoBlue), “M6” HAE; settings: M6 HAE, 72 h
[22] = Single-dose plasma pharmacokinetics in ferrets; settings: ferret, GS-441524 IV 20 mg/kg, 20 mg/kg

N#C[C@@]1(c2ccc3c(N)ncnn23)O[C@H](CO)[C@@H](O)[C@H]1O [GS-441524]
EC50 ([1]; Severe acute respiratory syndrome coronavirus 2, Vero C1008, WA1/2020, VeroE6, mean n=3): 680 nM | Virus yield reduction ([1]; WA1/2020, VeroE6, 5.55556 µM, vehicle = 0): -3.43 | EC50 [2]: 110 nM | EC50 [3]: 340 nM | EC50 [4]: 550 nM | A549-hACE2 SARS-CoV-2 Nluc (EC50 determination), normalized signal ([5]; Conc 0.005 µM, replicate values of the experiments): 114.03 | A549-hACE2 SARS-CoV-2 Nluc (EC50 determination), normalized signal ([5]; Conc 0.02 µM, replicate values of Exp 1-6): 66.74 and 93.22 and 117.07 and 119.81 and 81.21 | A549-hACE2 SARS-CoV-2 Nluc (EC50 determination), normalized signal ([5]; Conc 0.07 µM, replicate values of Exp 1-6): 114.55 and 112.96 and 134.59 and 90.75 | A549-hACE2 SARS-CoV-2 Nluc (EC50 determination), normalized signal ([5]; Conc 0.21 µM, replicate values of Exp 1-6): 92.40 and 126.15 | A549-hACE2 SARS-CoV-2 Nluc (EC50 determination), normalized signal ([5]; Conc 3.333 µM, replicate values of the experiments): 14.96 and 23.34 and 25.42 | A549-hACE2 SARS-CoV-2 Nluc (EC50 determination), normalized signal ([5]; Conc 5.56 µM, replicate values of Exp 1-6): 3.54 and 6.01 and 4.94 and 3.43 and 3.57 and 2.25 and 0.47 and 0.46 and 0.35 and 0.41 and 5.69 | A549-hACE2 SARS-CoV-2 Nluc (EC50 determination), normalized signal ([5]; Conc 10.000 µM, replicate values of the experiments): 0.35 and 0.30 and 0.32 and 0.31 | A549-hACE2 SARS-CoV-2 Nluc (EC50 determination), normalized signal ([5]; Conc 16.67 µM, replicate values of Exp 1-6): 1.67 and 0.36 (2×) and 0.34 and 1.12 and 1.72 and 1.07 and 0.18 (2×) and 0.21 and 0.23 and 0.31 | A549-hACE2 SARS-CoV-2 Nluc (EC50 determination), normalized signal ([5]; Conc 50.00 µM, replicate values of Exp 1-6): 0.89 and 0.17 (2×) and 0.16 (3×) and 0.55 and 0.87 and 0.59 and 0.19 and 0.20 and 0.18 | EC50 ([5]; Severe acute respiratory syndrome coronavirus 2, WA1/2020-nano luciferase, A549-ACE2, mean ± SD): 1400 ± 900 nM | EC50 [6]: 2830 nM | basolateral drug concentration at which epithelium integrity (TEER) was fully preserved [7]: ≥ 3 µM | EC50 [8]: 110 to 680 nM | oral F [9]: 12% | oral bioavailability (in words) [10]: poor oral bioavailability | CC50 at 48 h (in vitro [11]): > 50000 nM | viability at 72 h, 3.704 µM (in vitro [12]): 93% | viability at 72 h, 0.046 µM (in vitro [13]): 88% | viability at 72 h, 3.704 µM (in vitro [14]; female, % cell viability): 90% | CC50 at 72 h (in vitro [14]): > 100000 nM | viability at 72 h, 100 µM (in vitro [14]; % cell viability): 62% | viability at 72 h, 0.046 µM ([15]; % cell viability, HEp-2, 0.046 µM, 72 h): 52% | viability at 72 h, 100 µM ([15]; % cell viability, HEp-2, 100 µM, 72 h): 51% | CC50 at 72 h ([15]; CC50, HEp-2, 72 h): > 100000 nM | viability at 72 h, 0.046 µM ([16]; % cell viability, HCT-8, 0.046 µM, 72 h): 74% | viability at 72 h, 1.235 µM ([16]; % cell viability, HCT-8, 1.235 µM, 72 h): 89% | viability at 72 h, 100 µM ([16]; % cell viability, HCT-8, 100 µM, 72 h): 62% | CC50 at 72 h ([16]; CC50, HCT-8, 72 h): > 100000 nM | CC50 at 72 h [17]: > 100000 nM | viability at 72 h, 0.046 µM ([17]; % cell viability, VeroE6, 0.046 µM, 72 h): 60% | viability at 72 h, 1.235 µM ([17]; % cell viability, VeroE6, 1.235 µM, 72 h): 75% | viability at 72 h, 3.704 µM ([17]; % cell viability, VeroE6, 3.704 µM, 72 h): 84% | viability at 72 h, 100 µM ([17]; % cell viability, VeroE6, 100 µM, 72 h): 66% | % cell viability (VeroE6 cells; VeroE6, 0.046 µM, 0.046 µM): 56% and 59% | % cell viability (VeroE6 cells; VeroE6, 1.235 µM, 1.235 µM): 91% and 82% | % cell viability (VeroE6 cells; VeroE6, 3.704 µM, 3.704 µM): 92% | % cell viability (VeroE6 cells; VeroE6, 100 µM, 100 µM): 59% | CC50 at 72 h [18]: > 100000 nM | viability at 72 h, 0.046 µM ([18]; % cell viability, BHK-21, 0.046 µM, 72 h): 64% | viability at 72 h, 1.235 µM ([18]; % cell viability, BHK-21, 1.235 µM, 72 h): 87% | viability at 72 h, 0.046 µM ([19]; female, “F3” primary human airway epithelial (HAE) cells, % cell viability, F3 HAE, 0.046 µM): 87% | viability at 72 h, 100 µM ([19]; % cell viability, F3 HAE, 100 µM): 84% | CC50 at 72 h ([19]; CC50, “F3” HAE): > 100000 nM | % cell viability (“F3” primary HAE cells; 0.046 µM): 90% | % cell viability (“F3” primary HAE cells; 100 µM): 86% and 74% | CC50 at 72 h [20]: > 100000 nM | CC50 at 72 h [21]: > 100000 nM | % cell viability (“M6” primary HAE cells; 0.046 µM): 87% | % cell viability (“M6” primary HAE cells; 3.704 µM): 86% | plasma concentration of GS-441524 ([22]; 0.25 h): 40.5 and 46.6 and 24.1 | plasma concentration of GS-441524 ([22]; 0.48 h): 62.4 and 57.2 and 43 | plasma concentration of GS-441524 ([22]; 0.58 h): 51.5 and 48.2 and 37.8 | plasma concentration of GS-441524 ([22]; 4 h): 8.65 and 7.17 | plasma concentration of GS-441524 ([22]; 8 h): 2.1 and 1.85 and 1.83 | plasma concentration of GS-441524 ([22]; 12 h): 0.669 and 0.467 and 0.448
